The source of these data is US8334382B2, “Substituted biaryl piperazinyl-pyridine analogues” (Neurogen Corporation, priority 2004, dated 2012).

In general, Ki refers to a dissociation constant, usually derived from enzyme kinetics or from competition with a known ligand. As usually defined, the IC50 is the concentration that inhibits the measured activity by half.

Structures are written as SMILES.

T1 sequence (Q8NER1 whole entry): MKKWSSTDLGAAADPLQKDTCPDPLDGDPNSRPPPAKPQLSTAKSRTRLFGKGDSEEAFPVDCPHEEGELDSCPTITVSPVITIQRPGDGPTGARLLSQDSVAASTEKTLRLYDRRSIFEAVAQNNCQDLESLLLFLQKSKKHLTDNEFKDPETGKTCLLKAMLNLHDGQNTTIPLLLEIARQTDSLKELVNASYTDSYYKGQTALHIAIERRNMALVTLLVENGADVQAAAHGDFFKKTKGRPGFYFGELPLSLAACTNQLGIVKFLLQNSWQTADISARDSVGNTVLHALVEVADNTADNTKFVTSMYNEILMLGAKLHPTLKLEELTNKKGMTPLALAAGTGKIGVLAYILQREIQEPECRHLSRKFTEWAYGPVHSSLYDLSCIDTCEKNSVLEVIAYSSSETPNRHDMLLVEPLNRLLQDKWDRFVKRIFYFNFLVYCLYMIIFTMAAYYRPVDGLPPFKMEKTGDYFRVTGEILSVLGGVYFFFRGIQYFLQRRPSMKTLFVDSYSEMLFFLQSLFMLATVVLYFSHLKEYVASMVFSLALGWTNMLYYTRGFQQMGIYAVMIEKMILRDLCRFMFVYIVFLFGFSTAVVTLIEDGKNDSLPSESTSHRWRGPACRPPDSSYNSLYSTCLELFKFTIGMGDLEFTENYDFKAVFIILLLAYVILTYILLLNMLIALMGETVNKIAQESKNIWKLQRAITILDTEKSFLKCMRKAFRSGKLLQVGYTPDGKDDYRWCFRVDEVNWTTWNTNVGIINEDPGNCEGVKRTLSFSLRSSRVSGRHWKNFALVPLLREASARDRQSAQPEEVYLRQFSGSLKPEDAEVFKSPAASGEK

The first experiment has as its target VR.
Test: not given
The following applies: binds to VR with no more than moderate affinity; cited from earlier work.
Take `Cl.Cl.Cl.Cl.Cl.Cl.N.N.N.N.N.N.N.N.N.N.N.N.N.N.[O-2].[O-2].[Ru+3].[Ru+3].[Ru+4]` [ruthenium red]: the inhibition constant (Ki) was ≥ 140000 nM.

The next experiment concerns the target T1, human capsaicin receptor (Homo sapiens, UniProt Q8NER1).
T1 construct: expressed in transfected cells; host or cells: HEK293, stably transfected with pBK-CMV construct
Put plainly: Calcium mobilization assay, determination of antagonist activity. To be noted: capsaicin at EC50; cells expressing human capsaicin receptor; Example 6. In kind it is cell-based. An outline of the steps:
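IC50 is the antagonist level giving a 50% drop in the capsaicin (EC50) calcium signal, read by FLIPR in Fluo-3 AM-loaded stable HEK293 lines bearing full-length human receptor. Compounds at 1-5 µM final were preincubated 0.5-6 h, room temperature, dark, in KRH pH 7.4.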
For orientation: Calcium assays in cells follow changes in intracellular calcium, usually with a dye or a luminescent sensor.
Consider `Cc1cc(C(=O)O)cnc1N1CCN(c2cc(-c3ccc(F)cc3)nc(N3CCC[C@H]3C)c2)[C@H](C)C1` [Example 172, 6-{4-[2-(4-Fluoro-phenyl)-6-(2-(R)-methyl-pyrrolidin-1-yl)-pyridin-4-yl]-3-(R)-methyl-piperazin-1-yl}-5-methyl-nicotinic acid], for which the IC50 is ≤ 1000 nM.

`C[C@@H]1CN(c2ncc(CO)cc2Cl)CCN1c1cc(-c2ccc(F)c(Cl)c2)nc(N2CCCCC2)n1` [Example 173, (5-Chloro-6-{4-[6-(3-chloro-4-fluoro-phenyl)-2-piperidin-1-yl-pyrimidin-4-yl]-3-(R)-methyl-piperazin-1-yl}-pyridin-3-yl)-methanol]: the IC50 is ≤ 1000 nM.

For `CCOC(=O)c1cnc(N2CCN(c3cc(-c4ccc(F)c(Cl)c4)nc(N4CCC[C@H]4C)n3)C[C@H]2C)c(Cl)c1` [Example 174, 5-Chloro-6-{4-[6-(3-chloro-4-fluoro-phenyl)-2-(2-(R)-methyl-pyrrolidin-1-yl)-pyrimidin-4-yl]-2-(R)-methyl-piperazin-1-yl}-nicotinic acid ethyl ester], the IC50 was ≤ 1000 nM.

In the case of `Cc1cc(C(=O)O)cnc1N1CCN(c2cc(-c3cccc(Cl)c3)nc(N3CCC[C@H]3C)c2)[C@H](C)C1` [Example 175, 6-{4-[2-(3-Chloro-phenyl)-6-(2-(R)-methyl-pyrrolidin-1-yl)-pyridin-4-yl]-3-(R)-methyl-piperazin-1-yl}-5-methyl-nicotinic acid], the half-maximal inhibitory concentration (IC50) was ≤ 1000 nM.

With `Cc1cc(-c2cc(N3CCN(c4ncc(C(=O)O)cc4C)C[C@H]3C)cc(N3CCC[C@H]3C)n2)ccc1F` [Example 176, 6-{4-[2-(4-Fluoro-3-methyl-phenyl)-6-(2-(R)-methyl-pyrrolidin-1-yl)-pyridin-4-yl]-3-(R)-methyl-piperazin-1-yl}-5-methyl-nicotinic acid], the IC50 was ≤ 1000 nM.

In the case of `C[C@@H]1CCCN1c1nc(-c2ccc(F)cc2)cc(N2CCN(c3ncc(C(=O)O)cc3C(F)(F)F)CC2)n1` [Example 177, 6-{4-[6-(4-Fluoro-phenyl)-2-(2-(R)-methyl-pyrrolidin-1-yl)-pyrimidin-4-yl]-piperazin-1-yl}-5-trifluoromethyl-nicotinic acid], the half-maximal inhibitory concentration (IC50) was ≤ 1000 nM.

With `Cc1cc(C(=O)O)cnc1N1CCN(c2cc(-c3ccc(F)c(Cl)c3)nc(N3CCC[C@H]3C)c2)[C@H](C)C1` [Example 178, 6-{4-[2-(3-Chloro-4-fluoro-phenyl)-6-(2-(R)-methyl-pyrrolidin-1-yl)-pyridin-4-yl]-3-(R)-methyl-piperazin-1-yl}-5-methyl-nicotinic acid], the IC50 is ≤ 1000 nM.

Consider `C[C@@H]1CN(c2ncc(C(=O)O)cc2C(F)(F)F)CCN1c1cc(-c2ccc(F)cc2)nc(N2CCC[C@H]2C)n1` [Example 179, 6-{4-[6-(4-Fluoro-phenyl)-2-(2-(R)-methyl-pyrrolidin-1-yl)-pyrimidin-4-yl]-3-(R)-methyl-piperazin-1-yl}-5-trifluoromethyl-nicotinic acid], for which the 50% inhibitory concentration (IC50) is ≤ 1000 nM.

`Cc1cc(C(=O)O)cnc1N1CCN(c2cc(-c3cncc(Cl)c3)nc(N3CCC[C@H]3C)c2)[C@H](C)C1` [Example 180, 6-{4-[5′-Chloro-6-(2-(R)-methyl-pyrrolidin-1-yl)-[2,3′]bipyridinyl-4-yl]-3-(R)-methyl-piperazin-1-yl}-5-methyl-nicotinic acid]: the IC50 was ≤ 1000 nM.

`Cc1cc(CCO)cnc1N1CCN(c2cc(-c3ccc(F)cc3)nc(N3CCC[C@H]3C)n2)[C@H](C)C1` [Example 181, 2-[6-((3R)-4-{6-(4-fluorophenyl)-2-[(2R)-2-methyl-1-pyrrolidinyl]-4-pyrimidinyl}-3-methyl-1-piperazinyl)-5-methyl-3-pyridinyl]ethanol]: the half-inhibitory concentration (IC50) is ≤ 1000 nM.

As for `Cc1cc(OCCO)cnc1N1CCN(c2cc(-c3ccc(F)c(Cl)c3)nc(N3CCC[C@H]3C)n2)[C@H](C)C1` [Example 182, 2-{[6-((3R)-4-{6-(3-chloro-4-fluorophenyl)-2-[(2R)-2-methyl-1-pyrrolidinyl]-4-pyrimidinyl}-3-methyl-1-piperazinyl)-5-methyl-3-pyridinyl]oxy}ethanol], the concentration for half-maximal inhibition (IC50) was ≤ 1000 nM.

Consider `C[C@@H]1CN(c2ncc(OCCO)cc2Cl)CCN1c1cc(-c2ccc(F)c(Cl)c2)nc(N2CCC[C@H]2C)n1` [Example 183, 2-{[5-chloro-6-((3R)-4-{6-(3-chloro-4-fluorophenyl)-2-[(2R)-2-methylpyrrolidin-1-yl]pyrimidin-4-yl}-3-methylpiperazin-1-yl)pyridin-3-yl]oxy}ethanol], for which the IC50 is ≤ 1000 nM.

As to `Cc1cc(OCCO)cnc1N1CCN(c2cc(-c3ccc(F)cc3)nc(N3CCC[C@H]3CO)n2)[C@H](C)C1` [Example 184, 2-{[6-((3R)-4-{6-(4-fluorophenyl)-2-[(2S)-2-(hydroxymethyl)pyrrolidin-1-yl]pyrimidin-4-yl}-3-methylpiperazin-1-yl)-5-methylpyridin-3-yl]oxy}ethanol], the half-maximal inhibitory concentration (IC50) was ≤ 1000 nM.

Regarding `C[C@@H]1CN(c2ncc(CCO)cc2Cl)CCN1c1cc(-c2ccc(F)c(Cl)c2)nc(N2CCC[C@H]2C)n1` [Example 185, 2-[5-chloro-6-((3R)-4-{6-(3-chloro-4-fluorophenyl)-2-[(2R)-2-methylpyrrolidin-1-yl]pyrimidin-4-yl}-3-methylpiperazin-1-yl)pyridin-3-yl]ethanol], the IC50 is ≤ 1000 nM.

With `C[C@@H]1CN(c2ncc(CCN(C)C)cc2Cl)CCN1c1cc(-c2ccc(F)c(Cl)c2)nc(N2CCC[C@H]2C)n1` [Example 186, 2-[5-chloro-6-((3R)-4-{6-(3-chloro-4-fluorophenyl)-2-[(2R)-2-methylpyrrolidin-1-yl]pyrimidin-4-yl}-3-methylpiperazin-1-yl)pyridin-3-yl]-N,N-dimethylethanamine], the IC50 is ≤ 1000 nM.

In the case of `CNCCc1cnc(N2CCN(c3cc(-c4ccc(F)c(Cl)c4)nc(N4CCC[C@H]4C)n3)[C@H](C)C2)c(Cl)c1` [Example 187, 2-[5-chloro-6-((3R)-4-{6-(3-chloro-4-fluorophenyl)-2-[(2R)-2-methylpyrrolidin-1-yl]pyrimidin-4-yl}-3-methylpiperazin-1-yl)pyridin-3-yl]-N-methylethanamine], the IC50 was ≤ 1000 nM.

In the case of `Cc1cc(C#N)cnc1N1CCN(c2cc(-c3ccc(F)cc3)nc(N3CCC[C@H]3C)n2)[C@H](C)C1` [Example 188, 6-((3R)-4-{6-(4-fluorophenyl)-2-[(2R)-2-methyl-1-pyrrolidinyl]-4-pyrimidinyl}-3-methyl-1-piperazinyl)-5-methylnicotinonitrile], the half-maximal inhibitory concentration (IC50) was ≤ 1000 nM.

In the case of `Cc1cccnc1N1CCN(c2nc(N3CCC[C@H]3C)nc(-c3ccc(F)cc3)c2F)[C@H](C)C1` [Example 189, 5-fluoro-4-(4-fluorophenyl)-6-[(2R)-2-methyl-4-(3-methylpyridin-2-yl)piperazin-1-yl]-2-[(2R)-2-methylpyrrolidin-1-yl]pyrimidine], the IC50 was ≤ 1000 nM.
